One data set concerns histone proteins. The experiment in a line: Purification of mSWI/SNF (BAF) complexes from NE and CHR fractions, colloidal blue staining. On the set-up: species or system human. On the procedure: Stable HEK293T cell lines expressing by lentiviral infection HA-SS18 WT or HA-SS18-SSX1 were grown in 150 mm dishes. Complexes were purified using methods previously described with a few modifications (Mashtalir et al. (2014) Mol. Cell 54:392-406). Confluent plates were scraped to remove cells and cells were washed with PBS. Cell suspension was spun down by centrifugation at 3000 rpm for 5 minutes at 4° C. and pellets were resuspended in hypotonic buffer (10 mM Tris HCl pH 7.5, 10 mM KCl, 1.5 mM MgCL2, 1 mM DTT, 1 mM PMSF) and incubated on ice for 5 minutes. Following incubation, cell suspension was spun down by centrifugation at 5000 rpm for 5 minutes at 4° C., and pellets were resuspended in 5× volume of fresh hypotonic buffer (with protease inhibitor cocktail, Roche C756U27) and then cells were homogenized using a Dounce homogenizer (glass). Cell suspension was layered onto hypotonic buffer sucrose cushion made with 30% sucrose w/v, spun down by centrifugation at 5000 rpm for 1 hour at 4° C. followed by removal of the cytosol-containing layer. The nuclei containing pellets were resuspended in high salt buffer (50 mM Tris HCl pH 7.5, 300 mM KCl, 1 mM MgCL2, 1 mM EDTA, 1 mM, 1% NP40, 1 mM DTT, 1 mM PMSF and protease inhibitor cocktail) and then the homogenate rotated for 1 hour at 4° C. […]

The test system of data set [1] is recombinant mononucleosome. The experiment in a line: ATPase assay (ADP-Glo). The format is biochemical. The following applies: 0-40 min. On the procedure:
ATPase consumption assays were performed using the ADP-Glo Kinase Assay kit (Promega). The same conditions as the REAA nucleosome remodeling assay described above were used. Following incubation with desired substrates for 40 min at 37° C., 1× volume of ADP-Glo Reagent was used to quench the reaction and incubated at RT for 40 min. 2× volume of the Kinase Detection Reagent was then added and incubated at RT for 1 h. Luminescence readout was recorded. Substrates used for this assay were purified recombinant mononucleosome (EpiDyne Nucleosome Remodeling Assay Substrate ST601-GATC1, EpiCypher, Cat #16-4101). Nuclear extract material was used at 150ug for each ARID1A-IP using ARID1A antibody (Cell Signaling, Cat #12354S).
A general note: In ADP-Glo the light output rises with the ADP produced.

Data set [2] has as its system BAF complex subunits and histone proteins. Put plainly: Mass spectrometry proteomics of purified HA-SS18 WT and HA-SS18-SSX1 complexes (Tables 5A-5E). On the set-up: species or system human. The settings on record: MS of HA purifications.
Method: Confluent plates were scraped to remove cells and cells were washed with PBS. Cell suspension was spun down by centrifugation at 3000 rpm for 5 minutes at 4° C. and pellets were resuspended in hypotonic buffer (10 mM Tris HCl pH 7.5, 10 mM KCl, 1.5 mM MgCL2, 1 mM DTT, 1 mM PMSF) and incubated on ice for 5 minutes. Following incubation, cell suspension was spun down by centrifugation at 5000 rpm for 5 minutes at 4° C., and pellets were resuspended in 5× volume of fresh hypotonic buffer (with protease inhibitor cocktail, Roche C756U27) and then cells were homogenized using a Dounce homogenizer (glass). Cell suspension was layered onto hypotonic buffer sucrose cushion made with 30% sucrose w/v, spun down by centrifugation at 5000 rpm for 1 hour at 4° C. followed by removal of the cytosol-containing layer. The nuclei containing pellets were resuspended in high salt buffer (50 mM Tris HCl pH 7.5, 300 mM KCl, 1 mM MgCL2, 1 mM EDTA, 1 mM, 1% NP40, 1 mM DTT, 1 mM PMSF and protease inhibitor cocktail) and then the homogenate rotated for 1 hour at 4° C. Homogenates were then spun down by centrifugation at 20,000 rpm for 1 hour at 4° C. in a SW32Ti rotor (Beckman Coulter). The soluble proteins, consisting of the nuclear extract (NE) fraction, was separated from the insoluble chromatin pellet, consisting of the chromatin (CHR) fraction. […]
Data set [3] relates to H2A K119Ub-modified nucleosomes. Put plainly: Pull down of endogenous HA-SS18- or HA-SS18-SSX-bound BAF complexes with WT or H2A K119Ub-modified nucleosomes. The format is binding. The settings on record: endogenously purified complexes. The protocol: Difference is the score calculated between SYO1 (SS18-SSX+) cells and SW982 cells (negative for fusion, histologic mimic). mSWI/SNF, PRC1, PRC2 members are shown. […] H3 immunoblot is used for assessment of nucleosome binding to GST-SSX. […] SMARCA4 and H3 immunoblots are shown. FIG. 11G has two panels. […] Peptides were incubated −/+presence of USP2 treatment. Error bars=st.dev. […] H3 immunoblot is used for assessment of nucleosome binding to GST-SSX. […] Data for GST-SSX with WT nucleosomes and H2A K119Ub nucleosomes are shared between FIG. 11E.
SS cell lines containing the SS18-SSX fusion oncoprotein are highlighted in red. […] Difference is the score calculated between SYO1, Yamato-SS, SCS241 (SS18-SSX+) cells and SW982 cells (negative for fusion, histologic mimic). Blue indicates enriched for dependency. mSWI/SNF, PRC1, PRC2 members are shown. […] Synovial sarcoma cell lines are indicated in pink; all other cell lines are represented in gray. […] (Project DRIVE; available on the World Wide Web at oncologynibr.shinyapps.io/drive/). SS cell lines containing the SS18-SSX fusion oncoprotein are highlighted in red. […] H3 immunoblot is used for assessment of nucleosome binding to GST-SSX. […] SMARCA4 and H3 immunoblots are shown. […] Identified proteins labeled (Left). WB of the samples on the right indicating presence of histone H3 (Right).

Another data set concerns nucleosomes. Put plainly: Restriction enzyme accessibility assay (REAA) nucleosome remodeling assay. In kind it is biochemical. The following applies: 37 degrees C, 0-40 min. The protocol:
SMARCA4 (BRG1) levels of the ammonium sulfate nuclear extracts were normalized via BCA protein quantification and Silver Stain analyses for HA-SS18 and HA-SS18-SSX conditions. Protein was diluted for final reaction concentration of 150 μg/mL in REAA buffer (20 mM HEPES, pH 8.0, 50 mM KCl, 5 mM MgCl2) containing 0.1 mg/mL BSA, 1 mM DTT, 20 nM nucleosomes (EpiDyne Nucleosome Remodeling Assay Substrate ST601-GATC1, EpiCypher). The REAA mixture was incubated at 37° C. for 10 min, and reaction was initiated using 1-2 mM ATP (Ultrapure ATP, Promega) and 0.005 U/mL DpnJJ Restriction Enzyme (New England Biolabs). The REAA reaction mixture was quenched with 20-24 mM EDTA and placed on ice. Proteinase K (Ambion) was added at 100 mg/mL for 30-60 min, followed by either AMPure bead DNA purification and D1000 HS DNA ScreenTape Analysis (Agilent) or mixing with GelPilot® Loading Dye (QIAGEN) and loading onto 8% TBE gel (Novex 8% TBE Gels, Thermo Fisher). TBE gels were stained with either SYBR®-Safe (Invitrogen) or Syto®-60 Red Fluorescent Nucleic Acid Stain (Invitrogen), followed by imaging with UV light on an Alpha Innotech AlphaImager™ 2200 and/or with 652 nm light excitation on a Li-Cor Odyssey® CLx imaging system (LI-COR).

Data set [4] deals with unmodified or H2A K119Ub-modified nucleosomes. The experiment in a line: Fluorescence polarization assay. The format is binding. The settings on record: H2A K119Ub versus unmodified nucleosomes. In general terms: In fluorescence polarisation assays a small probe gives low polarisation when free and higher when bound to something large.

Consider “SS18-SSX-bound BAF complexes: BAF complexes purified via HA-tagged SS18-SSX expressed in HEK-293T cells”, for which the “core histone proteins captured” value in the data set with histone proteins is “captured near-stoichiometric amounts of core histone proteins H2A, H2B, H3, and H4”. Also, in data set [1], the ATPase activity entry is listed as “slightly lower than that of WT SS18-bound complexes”. Besides, the “peptides corresponding to the H2A K119Ub mark captured” value in data set [2] is “captured only in the purifications of SS18-SSX-bound complexes”. For the same substance, in data set [3], the “binding of H2A K119Ub-modified versus unmodified nucleosomes by BAF complexes” value is listed as “enriched for binding of recombinant H2A K119Ub-modified nucleosomes over unmodified nucleosomes”. In addition, in the data set with nucleosomes, the remodeling efficiency entry was “slightly lower than that of WT SS18-bound complexes”.
Take “fluoro-labeled SSX: fluorescently-labeled SSX1 (78aa), in place of GST tag”: the “binding affinity by fluorescence polarization” value in data set [4] was “higher binding affinity to H2A K119Ub-decorated nucleosomes compared to unmodified nucleosomes”.

Source of the values: patent US20250283871A1, “COMPOSITIONS AND METHODS FOR MODULATING THE INTERACTION BETWEEN SS18-SSX FUSION ONCOPROTEIN AND NUCLEOSOMES” (Dana-Farber Cancer Institute, Inc., priority 2020, published 2025).
